The test addresses T1, OX2 receptor (Homo sapiens, UniProt O43614).
T1 construct: expressed in transfected cells; host or cells: CHO cells (membranes)
T1 sequence (O43614 1-444): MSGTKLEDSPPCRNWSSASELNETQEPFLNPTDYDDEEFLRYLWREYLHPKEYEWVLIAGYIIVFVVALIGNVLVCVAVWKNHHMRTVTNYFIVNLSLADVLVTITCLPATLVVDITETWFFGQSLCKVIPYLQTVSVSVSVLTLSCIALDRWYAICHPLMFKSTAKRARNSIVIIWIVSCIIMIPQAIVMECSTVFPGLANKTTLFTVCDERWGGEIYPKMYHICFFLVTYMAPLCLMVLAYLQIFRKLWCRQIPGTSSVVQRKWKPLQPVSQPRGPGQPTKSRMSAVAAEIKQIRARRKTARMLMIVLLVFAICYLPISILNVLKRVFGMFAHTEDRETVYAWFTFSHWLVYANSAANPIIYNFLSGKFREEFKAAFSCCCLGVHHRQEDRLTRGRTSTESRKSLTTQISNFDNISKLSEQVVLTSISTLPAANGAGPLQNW
The experiment in a line: radioligand binding assay, OX2 receptor. To be noted: membranes prepared from CHO cells expressing the OX2 receptor; read-out: OX2R Ki. How it is done:
The utility of the compounds in accordance with the present invention as orexin receptor OX1R and/or OX2R antagonists may be readily determined without undue experimentation by methodology well known in the art, including the “FLIPR Ca^2+ Flux Assay” (Okumura et al., Biochem. Biophys. Res. Comm. 280:976-981, 2001). In a typical experiment the OX1 and OX2 receptor antagonistic activity of the compounds of the present invention was determined in accordance with the following experimental method. For intracellular calcium measurements, Chinese hamster ovary (CHO) cells expressing the rat orexin-1 receptor or the human orexin-2 receptor, are grown in Iscove's modified DMEM containing 2 mM L-glutamine, […], 1% hypoxanthine-thymidine supplement, 100 U/ml penicillin, 100 ug/ml streptomycin and 10% heat-inactivated fetal calf serum (FCS). The cells are seeded at 20,000 cells/well into Becton-Dickinson black 384-well clear bottom sterile plates coated with poly-D-lysine. All reagents were from GIBCO-Invitrogen Corp. The seeded plates are incubated overnight at 37° C. and 5% CO2. Ala-6,12 human orexin-A as the agonist is prepared as a 1 mM stock solution in 1% bovine serum albumin (BSA) and diluted in assay buffer (HBSS containing 20 mM HEPES, 0.1% BSA and 2.5 mM probenecid, pH 7.4) for use in the assay at a final concentration of 70 pM. Test compounds are prepared as 10 mM stock solution in DMSO, then diluted in 384-well plates, first in DMSO, then assay buffer. On the day of the assay, cells are washed 3 times with 100 ul assay buffer and then incubated for 60 min (37° C., 5% CO2) in 60 ul assay buffer containing 1 uM Fluo-4AM ester, 0.02% pluronic acid, and 1% BSA. The dye loading solution is then aspirated and cells are washed 3 times with 100 ul assay buffer. 30 ul of that same buffer is left in each well. Within the Fluorescent Imaging Plate Reader (FLIPR, Molecular Devices), test compounds are added to the plate in a volume of 25 ul, incubated for 5 min and finally 25 ul of agonist is added. Fluorescence is measured for each well at 1 second intervals for 5 minutes and the height of each fluorescence peak is compared to the height of the fluorescence peak induced by 70 pM Ala-6,12 orexin-A with buffer in place of antagonist. For each antagonist, IC50 value (the concentration of compound needed to inhibit 50% of the agonist response) is determined. Alternatively, compound potency can be assessed by a radioligand binding assay (described in Bergman et. al. Bioorg. Med. Chem. Lett. 2008, 18, 1425-1430) in which the inhibition constant (Ki) is determined in membranes prepared from CHO cells expressing either the OX1 or OX2 receptor. The intrinsic orexin receptor antagonist activity of a compound which may be used in the present invention may be determined by these assays.
Turning to “N-(4-ethyl-3- methoxybenzyl)-5″- methyl-2,2′:5′,3″- terpyridine-3′- carboxamide [12-17]”, the Ki was found to be 1.2 nM.
With `COc1ccc(CNC(=O)c2cc(-c3cncc(C#N)c3)cnc2-c2ccccn2)nc1OC` [12-14, 5″-cyano-N-[(5,6-dimethoxypyridin-2-yl)methyl]-2,2′:5′,3″- terpyridine-3′-carboxamide] the figure was 12 nM; with `COc1ccc(CNC(=O)c2cc(-c3cc(C)cnc3F)cnc2-c2ccccn2)cc1Cl` [11-5, N-(3-chloro-4-methoxybenzyl)-2″-fluoro-5″- methyl-2,2′: 5′,3 ″-terpyridine-3′-carboxamide], 1.3 nM.
For `COc1ccc(CNC(=O)c2cc(-c3cncc(Cl)c3)cnc2-c2ccccn2)nc1OC` [12-5, 5″-chloro-N-[(5,6-dimethoxypyridin-2-yl)methyl]-2,2′:5′,3″-terpyridine-3′-carboxamide] the value was 0.54 nM.
For `COc1ccc(CNC(=O)c2cc(-c3cncc(C)c3)cnc2-c2ccccn2)nc1OC` [12-6, N-[(5,6-dimethoxypyridin-2-yl)methyl]-5″-methyl-2,2′:5′,3″-terpyridine-3′-carboxamide] the value was 0.46 nM.

The values are drawn from patent US8349872B2, “Tripyridyl carboxamide orexin receptor antagonists” (Merck Sharp & Dohme Corp., priority 2008, dated 2013).
